Data from US20230271950A1, “ANTIBACTERIAL PICOLINAMIDE COMPOUNDS” (University of Notre Dame Du Lac, priority 2020, published 2023).
Where two headings read alike, the source gives them in different places.

Legend:
C. difficile = test: MIC by broth microdilution against C. difficile strains; format: cell-based, Clostridioides difficile
Fusobacterium nucleatum = test: MIC against gut bacterium Fusobacterium nucleatum; format: cell-based; conditions: Fusobacterium nucleatum, Fusobacterium nucleatum strain HM-992, read-out: MIC
Corynebacterium spp. = test: MIC against gut bacterium Corynebacterium spp.; format: cell-based; conditions: Corynebacterium, Corynebacterium spp. strain HM-784
[1] = test system: Fecal microbiota preparation; test: MIC against fecal microbiota preparation; format: cell-based; conditions: Fecal microbiota preparation from OpenBiome tested at 1000-fold dilution
Procedure: Minimum inhibitory concentrations (MIC). MICs for C. difficile strains and the common gut bacteria were determined using broth microdilution techniques as reported earlier using brucella broth supplemented with hemin and vitamin K or supplemented BHIS broth. Lactobacillus MRS broth was used for lactobacillus strains. Sodium lactate was supplemented in the media for Veillonella sp. […] All incubations, unless specified otherwise, were carried out at 24 h or 48 h at 37° C. in an anaerobic chamber (Whitley DG250 workstation, Microbiology International, Frederick, Md.). Corynebacterium and Lactobacillus species were incubated aerobically.

S. aureus ATCC29213 = test: MIC against MSSA; format: cell-based, Staphylococcus aureus; conditions: Staphylococcus aureus
MRSA (NRS70, NRS119) = test: MIC against MRSA strains; format: cell-based, Staphylococcus aureus; conditions: for MIC: Staphylococcus aureus, read-out: MIC
Veillonella sp. HM-49 = test: MIC against gut bacterium Veillonella sp.; format: cell-based
Eubacterium sp. = test: MIC against gut bacterium Eubacterium sp.; format: cell-based; conditions: Eubacterium, Eubacterium sp. strain HM-178, read-out: MIC
Lactobacillus gasseri = test: MIC against gut bacterium Lactobacillus gasseri; format: cell-based

O=C(O)c1ccc2oc(NC(=O)c3cc(Oc4cccc(OC(F)(F)F)c4)ccn3)nc2c1 [Compound 1, Sodium 2-(4-(3-(trifluoromethoxy)phenoxy)picolinamido)benzo[d]oxazole-5-carboxylate]
MIC (C. difficile; C. difficile NR-49323, Table 9): 0.125 µg/mL
MIC (C. difficile; C. difficile NR-49324, Table 9): 0.125 µg/mL
MIC (C. difficile; C. difficile NR-49325, Table 9): 0.125 µg/mL
MIC (C. difficile; C. difficile NR-49326, Table 9): 0.125 µg/mL
MIC (C. difficile; C. difficile NR-49329, Table 9): 0.125 µg/mL
MIC (C. difficile; C. difficile, Table 8): 0.125 µg/mL
MIC (C. difficile; Clostridioides difficile): 0.125 µg/mL
MIC (C. difficile; Clostridioides difficile, ATCC43255): 0.125 µg/mL
MIC (C. difficile; Clostridioides difficile, ATCC43255, C. difficile ATCC 43255, read-out: MIC against C. difficile): 0.12 µg/mL
MIC (C. difficile; Clostridioides difficile, ATCC43598): 0.125 µg/mL
MIC (C. difficile; Clostridioides difficile, BAA1801): 0.125 µg/mL
MIC (C. difficile; Clostridioides difficile, BAA1803, C. difficile BAA-1803, Table 7, read-out: MIC): 0.0625 µg/mL
MIC (C. difficile; Clostridioides difficile, BAA1803, C. difficile BAA-1803, Table 9, read-out: MIC): 0.06 µg/mL
MIC (C. difficile; Clostridioides difficile, BAA1804): 0.125 µg/mL
MIC (C. difficile; Clostridioides difficile, BAA1812): 0.125 µg/mL
MIC (C. difficile; Clostridioides difficile, BAA1814): 0.125 µg/mL
MIC (C. difficile; Clostridioides difficile, BAA1870): 0.125 µg/mL
MIC (C. difficile; Clostridioides difficile, C. difficile 23828 (FR, fidaxomicin-resistant), Table 7, read-out: MIC): 0.25 µg/mL
MIC (C. difficile; Clostridioides difficile, C. difficile 23828, clinical isolate resistant to FDX, Table 1, read-out: MIC): 0.25 µg/mL
MIC (C. difficile; Clostridioides difficile, C. difficile 23828, Table 9, read-out: MIC): 0.25 µg/mL
MIC (C. difficile; Clostridioides difficile, C. difficile 24531 (VR, vancomycin-resistant), Table 7, read-out: MIC): 0.25 µg/mL
MIC (C. difficile; Clostridioides difficile, C. difficile 24531, Table 9, read-out: MIC): 0.25 µg/mL
MIC (C. difficile; Clostridioides difficile, C. difficile 26675 (MR, metronidazole-resistant), Table 7, read-out: MIC): 0.25 µg/mL
MIC (C. difficile; Clostridioides difficile, C. difficile 26675, clinical isolate resistant to MTZ, Table 1, read-out: MIC): 0.25 µg/mL
MIC (C. difficile; Clostridioides difficile, C. difficile 26675, Table 9, read-out: MIC): 0.25 µg/mL
MIC (C. difficile; Clostridioides difficile, C. difficile HM-88, Table 9, read-out: MIC): 0.25 µg/mL
MIC (C. difficile; Clostridioides difficile, C. difficile NR49294, Table 7, read-out: MIC): 0.0625 µg/mL
MIC (C. difficile; Clostridioides difficile, C. difficile NR49294, Table 9, read-out: MIC): 0.06 µg/mL
MIC (C. difficile; Clostridioides difficile, C. difficile NR49302, Table 7, read-out: MIC): 0.0625 µg/mL
MIC (C. difficile; Clostridioides difficile, C. difficile NR49302, Table 9, read-out: MIC): 0.06 µg/mL
MIC (C. difficile; Clostridioides difficile, C. difficile NR49305, Table 7, read-out: MIC): 0.0625 µg/mL
MIC (C. difficile; Clostridioides difficile, C. difficile NR49305, Table 9, read-out: MIC): 0.06 µg/mL
MIC (C. difficile; Clostridioides difficile, C. difficile NR49318, Table 7, read-out: MIC): 0.06 µg/mL
MIC (C. difficile; Clostridioides difficile, C. difficile NR49318, Table 9, read-out: MIC): 0.06 µg/mL
MIC (C. difficile; Clostridioides difficile, C. difficile NR-13429, Table 9, read-out: MIC): 0.06 µg/mL
MIC (C. difficile; Clostridioides difficile, C. difficile NR-13431, Table 9, read-out: MIC): 0.06 µg/mL
MIC (C. difficile; Clostridioides difficile, C. difficile NR-13433, Table 9, read-out: MIC): 0.25 µg/mL
MIC (C. difficile; Clostridioides difficile, C. difficile NR-32885, Table 9, read-out: MIC): 0.25 µg/mL
MIC (C. difficile; Clostridioides difficile, C. difficile NR-32890, Table 9, read-out: MIC): 0.25 µg/mL
MIC (C. difficile; Clostridioides difficile, C. difficile NR-32891, Table 9, read-out: MIC): 0.25 µg/mL
MIC (C. difficile; Clostridioides difficile, C. difficile NR-32895, Table 9, read-out: MIC): 0.25 µg/mL
MIC (C. difficile; Clostridioides difficile, C. difficile NR-32896, Table 9, read-out: MIC): 0.25 µg/mL
MIC (C. difficile; Clostridioides difficile, C. difficile NR-32903, Table 9, read-out: MIC): 0.25 µg/mL
MIC (C. difficile; Clostridioides difficile, C. difficile NR-49281, Table 9, read-out: MIC): 0.06 µg/mL
MIC (C. difficile; Clostridioides difficile, C. difficile NR-49283, Table 9, read-out: MIC): 0.06 µg/mL
MIC (C. difficile; Clostridioides difficile, C. difficile NR-49284, Table 9, read-out: MIC): 0.25 µg/mL
MIC (C. difficile; Clostridioides difficile, C. difficile NR-49285, Table 9, read-out: MIC): 0.03 µg/mL
MIC (C. difficile; Clostridioides difficile, C. difficile NR-49287, Table 9, read-out: MIC): 0.06 µg/mL
MIC (C. difficile; Clostridioides difficile, C. difficile NR-49289, Table 9, read-out: MIC): 0.25 µg/mL
MIC (C. difficile; Clostridioides difficile, C. difficile NR-49297, Table 9, read-out: MIC): 0.06 µg/mL
MIC (C. difficile; Clostridioides difficile, C. difficile NR-49298, Table 9, read-out: MIC): 0.06 µg/mL
MIC (C. difficile; Clostridioides difficile, C. difficile NR-49304, Table 9, read-out: MIC): 0.25 µg/mL
MIC (C. difficile; Clostridioides difficile, C. difficile NR-49306, Table 9, read-out: MIC): 0.25 µg/mL
MIC (C. difficile; Clostridioides difficile, C. difficile NR-49311, Table 9, read-out: MIC): 0.25 µg/mL
MIC (C. difficile; Clostridioides difficile, C. difficile NR-49313, Table 9, read-out: MIC): 0.06 µg/mL
MIC (C. difficile; Clostridioides difficile, C. difficile NR-49321, Table 9, read-out: MIC): 0.25 µg/mL
MIC (C. difficile; Clostridioides difficile, C. difficile NR-49327, Table 9, read-out: MIC): 0.25 µg/mL
MIC (C. difficile; Clostridioides difficile, C. difficile NR-49328, Table 9, read-out: MIC): 0.06 µg/mL
MIC50 (C. difficile; Clostridioides difficile, 101 C. difficile strains): 0.12 µg/mL
MIC90 (C. difficile; Clostridioides difficile, 101 C. difficile strains, read-out: MIC90 (101 strains)): 0.25 µg/mL
Selectivity (C. difficile; MIC MRSA NRS70/MIC C. difficile ATCC43255, Table 7): 128
Selectivity (C. difficile; Table 8): 128
MIC (Fusobacterium nucleatum; Table 1): 4 µg/mL
MIC (Fusobacterium nucleatum; Table 7): 4 µg/mL
MIC (Corynebacterium spp.; Table 1): 8 µg/mL
MIC (Corynebacterium spp.; Table 7): 8 µg/mL
MIC [1]: > 128 µg/mL
MIC (S. aureus ATCC29213; MSSA ATCC 29213, Table 10, unit inferred, read-out: Activity (MIC) against S. aureus): 64 µg/mL
MIC (S. aureus ATCC29213; S. aureus ATCC29213, Table 1, read-out: MIC): 64 µg/mL
lower activity against MRSA (MRSA (NRS70, NRS119); MRSA versus C. difficile, Table 1): 128 fold
MIC (MRSA (NRS70, NRS119); MRSA NRS70, Table 1): 16 µg/mL
MIC (MRSA (NRS70, NRS119); MRSA NRS70, Table 7): 16 µg/mL
MIC (MRSA (NRS70, NRS119); MRSA NRS119, Table 1): 16 µg/mL
MIC (Veillonella sp. HM-49; SP.HM49, Veillonella sp. HM-49, Table 1, read-out: MIC): 16 µg/mL
MIC (Veillonella sp. HM-49; Veillonella sp. strain HM-49, Table 7): 16 µg/mL
MIC (Eubacterium sp.; Table 1): 8 µg/mL
MIC (Eubacterium sp.; Table 7): 16 µg/mL
MIC (Lactobacillus gasseri; Lactobacillus gasseri strain HM-644, Table 7): >16 µg/mL
MIC (Lactobacillus gasseri; Lactobacillus gasseri, Lactobacillus gasser strain HM-644, Table 1, read-out: MIC): > 16 µg/mL
